What was measured:
[1] = system: Phosphorylation of ERK1/2 in AsPC-1 cells; experiment: Phospho-ERK1/2 MSD Assay; assay type: cell-based; details: Homo sapiens, ASPC1, 2 h, read-out: 2 h p-ERK (AsPC-1 cells), IC50, AsPC-1 cells, 2 h compound treatment
Description: Sixteen hours prior to compound treatment, AsPC-1 cells were seeded in 96-well cell culture plates at a density of 25,000 cells/well and incubated at 37° C., 5% CO2. A compound dose-response titration was diluted in growth media, added to appropriate wells of a cell culture plate, and then incubated at 37° C., 5% CO2 for 2 hours.

[2] = molecular target: His-tagged KRAS G12D protein (Homo sapiens, UniProt P01116, G12D); experiment: biochemical
Chain of His-tagged KRAS G12D protein (P01116 1-188 isoform P01116-2 G12D): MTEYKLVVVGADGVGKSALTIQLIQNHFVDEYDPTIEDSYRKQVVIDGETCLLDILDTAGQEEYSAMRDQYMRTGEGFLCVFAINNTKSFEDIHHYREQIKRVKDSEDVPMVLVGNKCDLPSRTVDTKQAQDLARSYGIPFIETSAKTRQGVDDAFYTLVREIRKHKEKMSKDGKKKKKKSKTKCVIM

SMILES	IC50 [1]	IC50 [2]
CCc1cccc2cc(O)cc(-c3ncc4c(N5CCC[C@@](C)(O)C5)nc(OC[C@@]56CCCN5C[C@H](F)C6)nc4c3F)c12 [Example 58, (R)-1-(7-(8-Ethyl-3-hydroxynaphthalen-1-yl)-8-fluoro-2-(((2R,7aS)-2-fluorotetrahydro-1H-pyrrolizin-7a(5H)-yl)methoxy)pyrido[4,3-d]pyrimidin-4-yl)-3-methylpiperidin-3-ol]	9 nM	1 nM
C[C@@]1(O)CCCN(c2nc(OC[C@@]34CCCN3C[C@H](F)C4)nc3c(F)c(-c4cc(O)cc5ccccc45)ncc23)C1 [Example 60, (R)-1-(8-Fluoro-2-(((2R,7aS)-2-fluorotetrahydro-1H-pyrrolizin-7a(5H)-yl)methoxy)-7-(3-hydroxynaphthalen-1-yl)pyrido[4,3-d]pyrimidin-4-yl)-3-methylpiperidin-3-ol]	330 nM	2 nM
CCc1c(F)ccc2cc(O)cc(-c3ncc4c(N5CC6CC(=O)C5C6)nc(OC[C@@]56CCCN5C[C@H](F)C6)nc4c3F)c12 (stereo partly drawn) [Example 72, 2-(7-(8-Ethyl-7-fluoro-3-hydroxynaphthalen-1-yl)-8-fluoro-2-(((2R,7aS)-2-fluorotetrahydro-1H-pyrrolizin-7a(5H)-yl)methoxy)pyrido[4,3-d]pyrimidin-4-yl)-2-azabicyclo[2.2.1]heptan-6-one]	3240 nM	34 nM
CCc1c(F)ccc2cc(O)cc(-c3ncc4c(N5CCCC(S(=O)(=O)NC)C5)nc(OC[C@@]56CCCN5C[C@H](F)C6)nc4c3F)c12 (stereo partly drawn) [Example 79, 1-(7-(8-Ethyl-7-fluoro-3-hydroxynaphthalen-1-yl)-8-fluoro-2-(((2R,7aS)-2-fluorotetrahydro-1H-pyrrolizin-7a(5H)-yl)methoxy)pyrido[4,3-d]pyrimidin-4-yl)-N-methylpiperidine-3-sulfonamide]	2190 nM	5 nM
CCc1c(F)ccc2cc(O)cc(-c3ncc4c(N5CCCCC[C@H]5C)nc(OC[C@@]56CCCN5C[C@H](F)C6)nc4c3F)c12 [Example 80, 5-Ethyl-6-fluoro-4-(8-fluoro-2-(((2R,7aS)-2-fluorotetrahydro-1H-pyrrolizin-7a(5H)-yl)methoxy)-4-((R)-2-methylazepan-1-yl)pyrido[4,3-d]pyrimidin-7-yl)naphthalen-2-ol]	253 nM	2 nM
CCc1c(F)ccc2cc(O)cc(-c3ncc4c(N5CCCCC[C@@H]5C)nc(OC[C@@]56CCCN5C[C@H](F)C6)nc4c3F)c12 [Example 81, 5-Ethyl-6-fluoro-4-(8-fluoro-2-(((2R,7aS)-2-fluorotetrahydro-1H-pyrrolizin-7a(5H)-yl)methoxy)-4-((S)-2-methylazepan-1-yl)pyrido[4,3-d]pyrimidin-7-yl)naphthalen-2-ol]	1160 nM	19 nM
CCc1c(F)ccc2cc(O)cc(-c3ncc4c(N5CC(CS(N)(=O)=O)C5)nc(OC[C@@]56CCCN5C[C@H](F)C6)nc4c3F)c12 [Example 82, (1-(7-(8-Ethyl-7-fluoro-3-hydroxynaphthalen-1-yl)-8-fluoro-2-(((2R,7aS)-2-fluorotetrahydro-1H-pyrrolizin-7a(5H)-yl)methoxy)pyrido[4,3-d]pyrimidin-4-yl)azetidin-3-yl)methanesulfonamide]	> 10000 nM	33 nM
CCc1c(F)ccc2cc(O)cc(-c3ncc4c(N5CCC(S(N)(=O)=O)CC5)nc(OC[C@@]56CCCN5C[C@H](F)C6)nc4c3F)c12 [Example 85, 1-(7-(8-Ethyl-7-fluoro-3-hydroxynaphthalen-1-yl)-8-fluoro-2-(((2R,7aS)-2-fluorotetrahydro-1H-pyrrolizin-7a(5H)-yl)methoxy)pyrido[4,3-d]pyrimidin-4-yl)piperidine-4-sulfonamide]	> 10000 nM	37 nM
CCc1c(F)ccc2cc(O)cc(-c3ncc4c(N5CCC(S(N)(=O)=O)C5)nc(OC[C@@]56CCCN5C[C@H](F)C6)nc4c3F)c12 (stereo partly drawn) [Example 86, 1-(7-(8-Ethyl-7-fluoro-3-hydroxynaphthalen-1-yl)-8-fluoro-2-(((2R,7aS)-2-fluorotetrahydro-1H-pyrrolizin-7a(5H)-yl)methoxy)pyrido[4,3-d]pyrimidin-4-yl)pyrrolidine-3-sulfonamide]	> 10000 nM	64 nM
CCc1c(F)ccc2cc(O)cc(-c3ncc4c(N5CC(S(N)(=O)=O)C5)nc(OC[C@@]56CCCN5C[C@H](F)C6)nc4c3F)c12 [Example 87, 1-(7-(8-Ethyl-7-fluoro-3-hydroxynaphthalen-1-yl)-8-fluoro-2-(((2R,7aS)-2-fluorotetrahydro-1H-pyrrolizin-7a(5H)-yl)methoxy)pyrido[4,3-d]pyrimidin-4-yl)azetidine-3-sulfonamide]	> 10000 nM	63 nM
CCc1c(F)ccc2cc(O)cc(-c3ncc4c(N5CC(C(N)=O)C5)nc(OC[C@@]56CCCN5C[C@H](F)C6)nc4c3F)c12 [Example 88, 1-(7-(8-Ethyl-7-fluoro-3-hydroxynaphthalen-1-yl)-8-fluoro-2-(((2R,7aS)-2-fluorotetrahydro-1H-pyrrolizin-7a(5H)-yl)methoxy)pyrido[4,3-d]pyrimidin-4-yl)azetidine-3-carboxamide]	> 10000 nM	6 nM

Now from value to compound:

IC50 [1]	IC50 [2]	SMILES
8 nM	1 nM	C#Cc1c(F)ccc2cc(O)cc(-c3ncc4c(N5CCCC(C)(O)C5)nc(OCC56CCCN5CC(F)C6)nc4c3F)c12 [Example 52, (R)-1-(7-(8-Ethynyl-7-fluoro-3-hydroxynaphthalen-1-yl)-8-fluoro-2-(((2R,7aS)-2-fluorotetrahydro-1H-pyrrolizin-7a(5H)-yl)methoxy)pyrido[4,3-d|pyrimidin-4-yl)-3-methylpiperidin-3-ol]
33 nM	1 nM	C[C@@]1(O)CCCN(c2nc(OC[C@@]34CCCN3C[C@H](F)C4)nc3c(F)c(-c4cc(O)cc5ccc(F)c(Cl)c45)ncc23)C1 [Example 56, (R)-1-(7-(8-Chloro-7-fluoro-3-hydroxynaphthalen-1-yl)-8-fluoro-2-(((2R,7aS)-2-fluorotetrahydro-1H-pyrrolizin-7a(5H)-yl)methoxy)pyrido[4,3-d]pyrimidin-4-yl)-3-methylpiperidin-3-ol]
115 nM	2 nM	C[C@@]1(O)CCCN(c2nc(OC[C@@]34CCCN3C[C@H](F)C4)nc3c(F)c(-c4cc(O)cc5cccc(F)c45)ncc23)C1 [Example 57, (R)-1-(8-Fluoro-7-(8-fluoro-3-hydroxynaphthalen-1-yl)-2-(((2R,7aS)-2-fluorotetrahydro-1H-pyrrolizin-7a(5H)-yl)methoxy)pyrido[4,3-d]pyrimidin-4-yl)-3-methylpiperidin-3-ol]
153 nM	3 nM	CCc1c(F)ccc2cc(O)cc(-c3ncc4c(N5CCCC(O)(CC)C5)nc(OC[C@@]56CCCN5C[C@H](F)C6)nc4c3F)c12 (stereo partly drawn) [Example 65, 3-Ethyl-1-(7-(8-ethyl-7-fluoro-3-hydroxynaphthalen-1-yl)-8-fluoro-2-(((2R,7aS)-2-fluorotetrahydro-1H-pyrrolizin-7a(5H)-yl)methoxy)pyrido[4,3-d]pyrimidin-4-yl)piperidin-3-ol]
754 nM	18 nM	CCc1c(F)ccc2cc(O)cc(-c3ncc4c(N5CCC[C@](C)(CO)C5)nc(OC[C@@]56CCCN5C[C@H](F)C6)nc4c3F)c12 [Example 66, 5-Ethyl-6-fluoro-4-(8-fluoro-2-(((2R,7aS)-2-fluorotetrahydro-1H-pyrrolizin-7a(5H)-yl)methoxy)-4-((S)-3-(hydroxymethyl)-3-methylpiperidin-1-yl)pyrido[4,3-d]pyrimidin-7-yl)naphthalen-2-ol]
816 nM	19 nM	CCc1c(F)ccc2cc(O)cc(-c3ncc4c(N5CCC[C@@](C)(CO)C5)nc(OC[C@@]56CCCN5C[C@H](F)C6)nc4c3F)c12 [Example 67, 5-Ethyl-6-fluoro-4-(8-fluoro-2-(((2R,7aS)-2-fluorotetrahydro-1H-pyrrolizin-7a(5H)-yl)methoxy)-4-((R)-3-(hydroxymethyl)-3-methylpiperidin-1-yl)pyrido[4,3-d]pyrimidin-7-yl)naphthalen-2-ol]
1690 nM	8 nM	CCc1c(F)ccc2cc(O)cc(-c3ncc4c(N5CCCC(C)(C(N)=O)C5)nc(OC[C@@]56CCCN5C[C@H](F)C6)nc4c3F)c12 (stereo partly drawn) [Example 68, 1-(7-(8-Ethyl-7-fluoro-3-hydroxynaphthalen-1-yl)-8-fluoro-2-(((2R,7aS)-2-fluorotetrahydro-1H-pyrrolizin-7a(5H)-yl)methoxy)pyrido[4,3-d]pyrimidin-4-yl)-3-methylpiperidine-3-carboxamide]
> 10000 nM	2 nM	CCc1c(F)ccc2cc(O)cc(-c3ncc4c(N5CC(O)(C(N)=O)C5)nc(OC[C@@]56CCCN5C[C@H](F)C6)nc4c3F)c12 [Example 83, 1-(7-(8-Ethyl-7-fluoro-3-hydroxynaphthalen-1-yl)-8-fluoro-2-(((2R,7aS)-2-fluorotetrahydro-1H-pyrrolizin-7a(5H)-yl)methoxy)pyrido[4,3-d]pyrimidin-4-yl)-3-hydroxyazetidine-3-carboxamide]
1290 nM	5 nM	CCc1c(F)ccc2cc(O)cc(-c3ncc4c(N5CCCC(S(C)(=O)=O)C5)nc(OC[C@@]56CCCN5C[C@H](F)C6)nc4c3F)c12 (stereo partly drawn) [Example 84, 5-Ethyl-6-fluoro-4-(8-fluoro-2-(((2R,7aS)-2-fluorotetrahydro-1H-pyrrolizin-7a(5H)-yl)methoxy)-4-(3-(methylsulfonyl)piperidin-1-yl)pyrido[4,3-d]pyrimidin-7-yl)naphthalen-2-ol]
> 3000 nM	9 nM	CCc1c(F)ccc2cc(O)cc(-c3ncc4c(N5CCCC(C(=O)NC)C5)nc(OC[C@@]56CCCN5C[C@H](F)C6)nc4c3F)c12 (stereo partly drawn) [Example 89, 1-(7-(8-Ethyl-7-fluoro-3-hydroxynaphthalen-1-yl)-8-fluoro-2-(((2R,7aS)-2-fluorotetrahydro-1H-pyrrolizin-7a(5H)-yl)methoxy)pyrido[4,3-d]pyrimidin-4-yl)-N-methylpiperidine-3-carboxamide]

From patent US20250034167A1, “HETEROCYCLIC COMPOUNDS AND METHODS OF USE” (AMGEN INC., priority 2021, published 2025)
